Reference: patent US10398142B2, “Polycationic amphiphiles as antimicrobial agents” (priority 2013, dated 2019)
Entries after “also recorded” stand apart in the source; their conditions may differ. Read-outs that look alike come from different tables or passages of the source. Marks after values point to notes of the source that are not given here.

Key:
[1] = test system: S. aureus (MSSA, SH1000) biofilms; assay: Minimum biofilm eradication concentration (MBEC), regrowth assay; format: cell-based, Staphylococcus aureus; conditions: for MBEC MSSA: Table 5, SH1000
Description: (§1) A regrowth assay was used to establish the MBEC of a compound to evaluate the antibiofilm activity. See also H. Ceri, M. Olson, D. Morck, D. Storey, R. Read, A. Buret, B. Olson, Methods Enzymol. 2001, 337, 377.
(§2) Encouraged by the potency of the QACs against planktonic bacterial cells, the inventors then evaluated the efficacy of compound (12,2,12) against Staphylococcus aureus and Enterococcus faecalis biofilms. […] To both accurately evaluate the antibiofilm activity, a regrowth assay was utilized to establish the minimum biofilm eradication concentration (MBEC) of each compound.
(§3) Different biological assays were performed. For all biological assays, laboratory strains of methicillin-susceptible Staphylococcus aureus MSSA (SH1000), Enterococcus faecalis (OG1RF), Escherichia coli (MC4100), Pseudomonas aeruginosa (PAO1), community-acquired methicillin-resistant Staphylococcus aureus CA-MRSA (USA300-0114), and hospital-acquired methicillin-resistant Staphylococcus aureus HA-MRSA (ATCC 33591) were grown at 37° C. overnight from freezer stocks in 10 mL of the media indicated for each assay. All cultures, with the exception of E. faecalis, were grown with shaking at 250 rpm.
(§4) Minimum biofilm eradication concentration (MBEC) was also measured. To each well of a flat-bottomed 96-well plate (Corning 3370), 8 μL of overnight bacterial culture was brought to a volume of 200 μL with fresh media (BHI for S. aureus and MRSA, Todd Hewitt (TH) for E. faecalis). Plates were incubated statically for 24 hours at 37° C. to establish biofilms. After 24 hours, the wells were carefully emptied by inverting the plate and gently shaking. A pre-mixed solution of media and aqueous compound stock solution was added to each well and plates were incubated at 37° C. 16 hours after pre-established biofilms were treated with compound, the media from each well was removed, biofilms were washed three times with 200 μL PBS to remove planktonic cells, and biofilms were incubated overnight at 37° C. in 200 μL of fresh media to allow any viable cells to continue growing. The wells were then vigorously pipetted to resuspend the biofilm cells and the OD at 595 nm was measured using a plate reader (POLARstar Omega, BMG Labtech). Biofilms reaching a final OD of less than 0.1 were considered eradicated and the lowest concentration of antibiotic corresponded to the MBEC. Four replicates were completed for each concentration of compound as well as positive and negative controls.

[2] = test system: CA-MRSA (USA300-0114) biofilms; assay: as above; format: cell-based, Staphylococcus aureus; conditions: Table 5; for MBEC CA-MRSA: USA300-0114
Experimental: as §1, §3, §4

HA-MRSA (ATCC 33591) = assay: Minimum inhibitory concentration (MIC), broth microdilution; format: cell-based, Staphylococcus aureus; conditions: for MIC: read-out: MIC HA-MRSA
Experimental: (§5) Different biological assays were performed. […] All cultures, with the exception of E. faecalis, were grown with shaking at 250 rpm.
(§6) Minimum inhibitory concentration (MIC) values against bacteria were measured using standard method. Compounds were serially diluted two-fold from an aqueous stock solution to yield twelve test concentrations. Overnight S. aureus, E. faecalis, E. coli, P. aeruginosa, CA-MRSA, and HA-MRSA cultures diluted to ca. 10^6 cfu/mL in Mueller-Hinton media and 100 μL were inoculated into each well of a U-bottom 96-well plate (BD Biosciences, BD351177) containing 100 μL of compound solution. Plates were incubated statically at 37° C. for 72 hours upon which time wells were evaluated visually for bacterial growth. The MIC was determined as the lowest concentration of compound resulting in no bacterial growth visible to the naked eye, based on the majority of three independent experiments. Positive and negative aqueous and media controls were conducted for each trial.

CA-MRSA (USA300-0114) = assay: as above; format: cell-based, Staphylococcus aureus; conditions: for MIC: read-out: MIC CA-MRSA; for potency against CA-MRSA strain possessing qacA/R (in words): compared with MSSA
Experimental: as §5, §6

E. faecalis biofilms = assay: Minimum biofilm eradication concentration (MBEC), regrowth assay; format: cell-based, Enterococcus faecalis
Description: as §1, §2, §3, §4

[3] = test system: Enterococcus faecalis (OG1RF); assay: Minimum inhibitory concentration (MIC), broth microdilution; format: cell-based; conditions: read-out: MIC E. faecalis
Experimental: (§7) The term “minimum inhibitory concentration (MIC)” means the lowest concentration of an antimicrobial agent that will inhibit the visible growth of a microorganism after overnight incubation. MIC values against bacteria, for example, the Gram-positive Staphylococcus aureus and Enterococcus faecalis and the Gram-negative Escherichia coli and Pseudomonas aeruginosa were determined by standard methods.
(§8) With nearly three-dozen amphiphiles varying in structure and cationic nature synthesized, minimum inhibitory concentration (MIC) values against the Gram-positive Staphylococcus aureus and Enterococcus faecalis and the Gram-negative Escherichia coli and Pseudomonas aeruginosa were determined by standard methods. […] The commercially available antibacterial agent benzalkonium chloride (benzyldimethyldodecylammonium chloride, Bn,12) was tested for comparison. The broth microdilution for determining MIC values was performed as previously reported.
as §5, §6

[4] = test system: Pseudomonas aeruginosa (PAO1); assay: as above; format: cell-based; conditions: read-out: MIC P. aeruginosa
Experimental: as §7, §8, §5, §6

[5] = test system: Staphylococcus aureus MSSA (SH1000); assay: as above; format: cell-based
Experimental: as §7, §8, §5, §6

[6] = test system: Escherichia coli (MC4100); assay: as above; format: cell-based; conditions: read-out: MIC E. coli
Experimental: as §7, §8, §5, §6

[7] = test system: red blood cells (defibrinated sheep blood); assay: Hemolysis assay (Lysis20); conditions: for Lysis20: Table 4, concentration at which less than 20% of red blood cells are lysed
Experimental: Hemolysis assays (Lysis20) were performed according to the procedure detailed in Peng, L., DeSousa, J., Su, Z., Novak, B. M., Nevzorov, A. A., Garland, E. R., and Melander, C., Inhibition of Acinetobacter baumannii biofilm formation on a methacrylate polymer containing a 2-aminoimidazole subunit, Chem. Comm. 2011, 47, 4896-4898. Defibrinated sheep blood was purchased from Hemostat Labs (DSB 100). Compounds representative of each class were serially diluted in sterile PBS from aqueous stock solutions and incubated with resuspended blood cells. The OD of the final suspensions were measured directly using plate reader. TritonX (1% by volume) served as a positive control (100% lysis marker) and sterile PBS served as a negative control (0% lysis marker).
Lysis20 indicates the concentration of compound (in μM) at which less than 20% of red blood cells are lysed.

[8] = Table 2, pre-established biofilm, ± values varied between 50 and 100 μM for the six trials
[9] = Table 3, read-out: MIC S. aureus
[10] = Table 4, SH1000, read-out: MIC MSSA
[11] = Staphylococcus aureus, Table 4, ATCC 33591
[12] = Staphylococcus aureus, Table 4, USA300-0114
[13] = Staphylococcus aureus, MSSA, Table 4, SH1000, read-out: MIC MSSA

Row | MIC (HA-MRSA (ATCC 33591); Table 4, ATCC 33591) [µM] | MIC (CA-MRSA (USA300-0114); Table 4, USA300-0114) [µM] | MIC [5, 10] [µM] | Compound | MBEC MSSA [1] [µM] | MBEC CA-MRSA [2] [µM] | MBEC E. faecalis (E. faecalis biofilms; Table 5) [µM] | Lysis20 [7] [µM] | also measured
1 | 1 | 1 | 1 | CCCCCCCCCCCC[n+]1ccc(-c2ccc[n+](CCCCCCCCCCCC)c2)cc1.[Br-].[Br-] [PMQ-12,12] | 100 | 150 ± 50 | 100 | 8 | 
2 | 16 | 16 | 8 | CCCCCCCCCCCC[n+]1cccc(-c2ccc[n+](Cc3ccccc3)c2)c1.[Br-].[Br-] [MQ-12,Bn] | >200 | >200 | >200 | 125 | prokaryotic selectivity (lytic profile vs MIC, in words) [7]: highest prokaryotic selectivity
3 | 1 | 2 | 1 | CCCCCCCCCCCC[n+]1cccc(-c2ccc[n+](CCCCCCCCCCCC)c2)c1.[Br-].[Br-] [MQ-12,12] | 100 | 100 | 100 | 8 | 

Continued, compound first:

Row | Compound | MIC (HA-MRSA (ATCC 33591); Table 4, ATCC 33591) [µM] | MIC (CA-MRSA (USA300-0114); Table 4, USA300-0114) [µM] | MIC [5, 10] [µM] | MBEC MSSA [1] [µM] | MBEC CA-MRSA [2] [µM] | MBEC E. faecalis (E. faecalis biofilms; Table 5) [µM] | Lysis20 [7] [µM] | also measured
4 | CCCCCCCCCCCC[N+](C)(C)CCN(C)CC[N+](C)(C)CCCCCCCCCCCC.[Br-].[Br-] [12,2,0,2,12] | 0.5 | 1 | 1 | 75 ± 25 | 100 | 100 | 8 | MBEC S. aureus [1, 8]: 75 ± 25^a μM; MBEC E. faecalis (E. faecalis biofilms; [8]): 100 µM; MIC ([3]; Table 1): 2 µM; MIC ([3]; Table 3): 1 µM; MIC ([4]; Table 1): 4 µM; MIC ([4]; Table 3): 4 µM; MIC ([5]; Table 1, read-out: MIC S. aureus): 1 µM; MIC [5, 9]: 1 µM; MIC ([6]; Table 1): 1 µM; MIC ([6]; Table 3): 2 µM
5 | C=CC[N+](C)(CCC[N+](C)(C)CCCCCCCCCCCC)CCC[N+](C)(C)CCCCCCCCCCCC.[Br-].[Br-].[Br-] [12,3,3A,3,12] | 1 | 1 | 1 | 50 | 100 | 75 ± 25 | 8 | MIC ([3]; Table 3): 2 µM; MIC ([4]; Table 3): 4 µM; MIC [5, 9]: 1 µM; MIC ([6]; Table 3): 2 µM
6 | CCCCCCCCCCCCCCCC[N+](C)(C)CCN(C)C.[Br-] [16,2,0] | 2 | 4 | 1 | 100 | >200 | 50 | 16 | 
7 | CCCCCCCCCCCCCCCC[N+](C)(C)CCCCC[N+](C)(C)CCCCCCCCCCCCCCCC.[Br-].[Br-] [16,5,16] | 1 | 8 | 2 | 200 | >200 | ≥200 | 4 | MIC ([3]; Table 3): 2 µM; MIC ([4]; Table 3): 32 µM; MIC [5, 9]: 2 µM; MIC ([6]; Table 3): 16 µM
8 | CCCCCCCCCCCC[n+]1ccc(-c2cc[n+](Cc3ccccc3)cc2)cc1 [PQ-12,Bn] |  |  |  | 200 | 200 | 200 | 125 | MIC (HA-MRSA (ATCC 33591); Staphylococcus aureus): 16 µM; potency against HA-MRSA (in words) (HA-MRSA (ATCC 33591); compared with MSSA): elevated MICs; MIC (CA-MRSA (USA300-0114); Staphylococcus aureus): 32 µM; potency against CA-MRSA strain possessing qacA/R (in words) (CA-MRSA (USA300-0114)): elevated MICs; also recorded: decreased potency; MIC ([5]; Staphylococcus aureus, MSSA, read-out: MIC MSSA): 4 µM; prokaryotic selectivity (lytic profile vs MIC, in words) ([7]; among the multiQACs evaluated): highest prokaryotic selectivity
9 | CCCCCCCCCCCCCCCC[n+]1ccccc1.[Cl-] [Pyr,16, reference compound] | 1 | 16 | 0.5 | 50 | 200 | 50 | 8 | decrease in efficacy against MRSA biofilms compared to MSSA ([2]; MBEC): four-fold decrease in efficacy; potency against CA-MRSA strain possessing qacA/R (in words) (CA-MRSA (USA300-0114)): decreased potency
10 | CCCCCCCCCC[N+](C)(C)CCCN(C)CCC[N+](C)(C)CCCCCCCCCC [10,3,0,3,10] |  |  |  | 150 ± 50 | 150 ± 50 | 50 | 32 | MIC (HA-MRSA (ATCC 33591); [11]): 2 µM; MIC (CA-MRSA (USA300-0114); [12]): 2 µM; MIC [5, 13]: 1 µM; prokaryotic selectivity (lytic profile vs MIC, in words) ([7]; among the multiQACs evaluated): highest prokaryotic selectivity
11 | CCCCCCCCCC[N+](C)(C)CCC[N+](C)(CC)CCC[N+](C)(C)CCCCCCCCCC [10,3,2,3,10] |  |  |  | 200 | 150 ± 50 | 100 | 32 | MIC (HA-MRSA (ATCC 33591); [11]): 2 µM; MIC (CA-MRSA (USA300-0114); [12]): 2 µM; MIC [5, 13]: 2 µM; prokaryotic selectivity (lytic profile vs MIC, in words) ([7]; among the multiQACs evaluated): highest prokaryotic selectivity
12 | CCCCCCCCCCCC[n+]1ccc(-c2cc[n+](CCCCCCCCCCCC)cc2)cc1.[Br-].[Br-] [PQ-12,12] | 0.5 | 1 | 1 | 200 | 100 | 200 | 8 | 
13 | CCCCCCCCCC[N+](C)(C)CCCCCCCCCC.[Cl-] [10,10, reference compound] | 2 | 4 | 1 | 150 ± 50 | ≥200 | >200 | 16 | 
14 | CCCCCCCCCCCC[N+](C)(C)CCCN(C)C.[Br-] [12,3,0] | 4 | 8 | 4 | >200 | >200 | >200 | 32 | 
